# How the values were obtained:
# Conditions in all cases: 72 h
# Caco-2 [1] = experiment: relative viability EC50 (midpoint between 100% and the lowest measured viability); higher = less toxic
# Vero E6 [2] = experiment: as above
# U2OS [3] = experiment: as above
# HepG2 [4] = experiment: as above
# Calu-3 [5] = experiment: as above
# Caco-2 [6] = experiment: drug sensitivity score (DSS) for viability; higher = more toxic; extreme values may be limits of the assay
# Vero E6 [7] = experiment: as above
# U2OS [8] = experiment: as above
# HepG2 [9] = experiment: as above
# Calu-3 [10] = experiment: as above
# Caco-2 [11] = experiment: cell viability relative to DMSO; higher = less toxic
# Vero E6 [12] = experiment: as above
# U2OS [13] = experiment: as above
# HepG2 [14] = experiment: as above
# Calu-3 [15] = experiment: as above
Structure (SMILES),relative viability EC50 (Caco-2 [1]) [µM],relative viability EC50 (Vero E6 [2]) [µM],relative viability EC50 (U2OS [3]) [µM],relative viability EC50 (HepG2 [4]) [µM],relative viability EC50 (Calu-3 [5]) [µM],drug sensitivity score (Caco-2 [6]),drug sensitivity score (Vero E6 [7]),drug sensitivity score (U2OS [8]),drug sensitivity score (HepG2 [9]),drug sensitivity score (Calu-3 [10]),cell viability (Caco-2 [11]; 1 nM) [%],cell viability (Caco-2 [11]; 10 nM) [%],cell viability (Caco-2 [11]; 100 nM) [%],cell viability (Caco-2 [11]; 1000 nM) [%],cell viability (Caco-2 [11]; 10000 nM) [%],cell viability (Vero E6 [12]; 1 nM) [%],cell viability (Vero E6 [12]; 10 nM) [%],cell viability (Vero E6 [12]; 100 nM) [%],cell viability (Vero E6 [12]; 1000 nM) [%],cell viability (Vero E6 [12]; 10000 nM) [%],cell viability (U2OS [13]; 1 nM) [%],cell viability (U2OS [13]; 10 nM) [%],cell viability (U2OS [13]; 100 nM) [%],cell viability (U2OS [13]; 1000 nM) [%],cell viability (U2OS [13]; 10000 nM) [%],cell viability (HepG2 [14]; 1 nM) [%],cell viability (HepG2 [14]; 10 nM) [%],cell viability (HepG2 [14]; 100 nM) [%],cell viability (HepG2 [14]; 1000 nM) [%],cell viability (HepG2 [14]; 10000 nM) [%],cell viability (Calu-3 [15]; 1 nM) [%],cell viability (Calu-3 [15]; 10 nM) [%],cell viability (Calu-3 [15]; 100 nM) [%],cell viability (Calu-3 [15]; 1000 nM) [%],cell viability (Calu-3 [15]; 10000 nM) [%]
O=C(O[C@H]1CN2CCC1CC2)N(Cc1cc(F)c(F)c(F)c1)c1cccc(F)c1 [tarafenacin],> 10,> 10,> 10,> 10,> 10,0,0,0,0,0,102,96.5,91.3,104,95.7,99.7,99.6,107,98.7,90.2,95.7,102,100,103,91.3,115,106,108,96.5,99.3,96.4,106,106,113,96.2
CC[C@H]1OC(=O)[C@H](C)C(=O)[C@H](C)[C@@H](O[C@@H]2O[C@H](C)C[C@H](N(C)C)[C@H]2O)[C@](C)(OC)C[C@@H](C)C(=O)[C@H](C)[C@H]2N(CCCCn3cnc(-c4cccnc4)c3)C(=O)O[C@]12C [telithromycin],> 10,> 10,> 10,> 10,> 10,0,0,0,0,0,100,99.5,100,104,89,98.1,98.9,96.1,96.1,106,88,95.4,95,95.2,97,105,96.6,103,101,109,107,101,89,99.8,100
CC(C)OC(=O)OCOP(=O)(CO[C@H](C)Cn1cnc2c(N)ncnc21)OCOC(=O)OC(C)C [tenofovir-disoproxil],> 10,> 10,> 10,1.35,> 10,0,0,0,5.6,1,96.3,93,93.8,97.2,89,102,94.9,96,94.3,96.7,96.2,101,92.6,103,95.8,102,101,109,82.2,44.6,97.1,104,97.1,95.4,80.8
CN1C(C(=O)Nc2ccccn2)=C(O)c2sccc2S1(=O)=O [tenoxicam],> 10,> 10,> 10,> 10,> 10,0,0,0,0,0,98,102,96.2,98.6,92.6,98.5,96.2,103,98.7,99.8,93.3,94.4,93.1,97,93.1,94.9,96,96.5,88.5,101,99.3,102,90.7,106,98.2
Cc1ncc(C[n+]2csc(CCO)c2C)c(N)n1 [thiamine],> 10,> 10,> 10,> 10,> 10,0,0,0,0,0,107,103,100,96.9,102,95.7,108,98.4,102,99.7,104,104,102,105,99.1,96,103,96.2,105,88.2,104,91.6,99.6,104,105
O=c1n(CCCN2CCN(c3cccc(Cl)c3)CC2)nc2ccccn12 [trazodone],> 10,> 10,> 10,> 10,> 10,0,0,0,0,0,99.5,98.2,97.5,89.6,96.4,98.8,101,95.6,103,101,102,104,98.5,97.2,98.3,95.8,99,94.1,108,91,105,92.4,95.1,79.7,99.3
O=C(Nc1ccc(Cl)cc1)Nc1ccc(Cl)c(Cl)c1 [triclocarban],> 10,> 10,> 10,> 10,> 10,0,0,0,0,0,82.8,59.4,94.2,104,87.9,101,89.4,103,86.8,95.4,92.6,96.5,94.2,102,97.2,90,88.1,99.6,98.1,97.1,97.2,93.3,97.3,88.8,100
COc1cc(C(=O)NCc2ccc(OCCN(C)C)cc2)cc(OC)c1OC [trimethobenzamide],> 10,> 10,> 10,> 10,> 10,0,0,0,0,0,95.9,94.3,99.2,87.8,99.7,96.1,99.7,93.2,99.1,99.9,97.6,93.8,102,97.4,100,98.2,106,99.5,101,107,103,84.6,98.2,93.6,101
O=C(O)c1ccccc1NCCc1ccccc1 [tromaril],> 10,> 10,> 10,> 10,> 10,0,0,0,0,0,97,97,96.9,96.2,102,97.5,99.5,99,102,95.5,102,102,101,96.4,101,102,101,93.8,104,95,106,94.5,99.3,90.1,106
N#C/C(=C\c1ccc(O)c(O)c1)C(N)=O [tyrphostin-AG-99],> 10,> 10,> 10,> 10,> 10,0,0,0,0,0,96.9,92.5,96.4,92.2,103,94,98.6,98.3,93.4,107,100,94.7,102,105,100,96.3,112,104,110,102,102,97.2,103,111,112
CCOC(N)=O [urethane],> 10,> 10,> 10,> 10,> 10,0,0,0,0,0,93.5,97.3,98.4,95.5,102,98.9,96.7,98,100,104,101,102,97.6,104,97.9,95.8,106,85,97.4,105,105,103,90.5,107,112
CC(C)[C@H](N)C(=O)OCCOCn1cnc2c(=O)nc(N)[nH]c21 [valaciclovir],> 10,> 10,> 10,> 10,> 10,0,0,0,0,0,103,96,104,99.4,104,90.1,92,86.5,86.1,105,94,101,96,105,110,103,92.5,104,99.5,101,103,98.8,88.4,111,90.3
COc1ccc(CCN(C)CCCN2CCc3cc(OC)c(OC)cc3CC2=O)cc1OC [zatebradine],> 10,> 10,> 10,> 10,> 10,0,0,0,0,0,97.2,90.5,92.9,99.6,94.4,94.1,98.4,93.4,96,88,101,94.5,99.1,97.6,97.6,105,99.4,100,103,97.7,97,100,92.9,105,94.2
CN(C)CCc1c[nH]c2ccc(C[C@H]3COC(=O)N3)cc12 [zolmitriptan],> 10,> 10,> 10,> 10,> 10,0,0,0,0,0,96.9,102,96.8,110,97.8,108,98.3,106,106,104,99,99.7,96.8,103,96.9,112,111,99,87.6,111,92.2,94.2,95.2,93.2,97
